Results: US20230292743A1, “Method for increasing the lifespan and motility of animal sperm using an inhibitor of Slo3 potassium channel” (IMV TECHNOLOGIES, priority 2017, published 2023)

Test system: mouse sperm
Assay: Ability of mouse sperm to fertilize oocytes after incubation in capacitation medium (in vitro fertilization, 2-cell embryos)
Type: cell-based
Details: 25 μM quinidine in M16-BSA medium, 12 hours incubation, vs control
Procedure: Mouse sperm was obtained by manual trituration of caudae epididymides from male and were allowed to swim in M2 medium (from Sigma) for 10 minutes. The M2 medium composition in g/L is as follows: CaCl2 0.25; MgSO4 (anhydrous) 0.1649; KCl 0.35635; K2HPO4 0.162; NaHCO3 0.35; NaCl 5.53193; Albumin, Bovine Fraction V 4.0; D-Glucose 1.0; HEPES (for 4-(2-HydroxyEthyl)-1-Piperazine EthaneSulfonic acid)×Na 5.42726; Pyruvic Acid×Na 0.0363; DL-Lactic Acid×Na 2.95). Sperm were then capacitated in M16 medium (from Sigma) with 2% fatty acid-free BSA (for Bovine Serum Albumin) (named “M16-BSA medium”) at 37° C. in a 5% v/v CO2 incubator for different times as specified. M16 medium is a commercial and commonly used medium for in vitro fertilization and culture of preimplantation stage embryos. Oocytes were collected from mature OF1 females, synchronized with 5 units of pregnant mare serum gonadotrophin (PMSG) and 5 units of human chorionic gonadotrophin (HCG). Cumulus were harvested directly from the ampulla and sperm were injected into the M16 droplets containing the cumulus. 1. The first test related to the ability of mouse sperm to fertilize oocytes when incubated prior fertilization in a capacitation medium containing clofilium with regard to a control medium, which is the same capacitation medium but without clofilium. The capacitation medium was M16-BSA medium. The control medium was the M16-BSA medium containing the sperm. It was compared to the same medium further including clofilium at a concentration of 5 μM (in the M16-BSA medium containing the sperm). Sperm was incubated in M16-BSA medium with or without clofilium and then added to M16 droplets containing the cumulus comprising the oocytes. Two-cell embryos were counted at 48 h post insemination (n=3). The number of oocytes reaching the two-cell stage were counted at 48 hours after fertilization. Two different concentrations of clofilium were tested: 0.2 μM of clofilium and 5 μM of clofilium (in the M16-BSA medium containing the sperm). The sperm incubation time prior fertilization was 12 hours. The test related to the ability of mouse sperm to fertilize oocytes, sperm being incubated prior fertilization in a medium containing quinidine with regard to a control medium, without quinidine. The control medium was the M16-BSA medium containing the sperm (“control”). It was compared to the same medium further including quinidine, at various concentrations 5 μM quinidine (“5 μM quinidine”), 10 μM quinidine (“10 μM quinidine”), 25 μM quinidine (“25 μM quinidine”) and 100 μM quinidine (“100 μM quinidine”).

C=C[C@H]1CN2CC[C@H]1C[C@@H]2[C@@H](O)c1ccnc2ccc(OC)cc12 [quinidine, (9S)-6′-methoxycinchonan-9-ol]
percentage of 2-cell embryos vs mature oocytes at 24 h post fertilization (sperm lifespan): better lifespan than the non-treated
